Measured values from patent publication US5008267A, “Pyrimidinedione compounds, method of producing the same and antiarrythmic agents containing the same” (Mitsui Toatsu Chemicals, Incorporated, priority 1988, dated 1991).
Counter-ions that a name gives are not always drawn.

How the values were obtained:
[1] = test system: Purkinje fiber of the right ventricular free wall (myocardial action potential); experiment: Influence on myocardial action potential duration time (APD75), isolated right ventricular free wall, microelectrode in Purkinje fiber; format: cell-based, dog; settings: Canis lupus familiaris, 20 min, 20 minutes' incubation; for activation at 1 µg/mL: 1.0 μg/ml; for activation at 1 µg/mL / activation at 3 µg/mL / activation at 10 µg/mL: (B-A)/A×100, read-out: APD75 (%); for activation at 3 µg/mL: 3.0 μg/ml; for activation at 10 µg/mL: 10.0 μg/ml; for activation at 0.3 µg/mL: 0.3 μg/ml, (B-A)/A×100
[2] = test system: ventricular muscle refractory period; experiment: Influence on ventricular muscle refractory period (ERP); format: in vivo, mongrel dog; settings: Canis lupus familiaris, iv, i.v., (W-Y)/Y×100, read-out: ERP (%; extensibility of refractory period)
Description: (2) Influence on ventricular muscle refractory period Refractory periods were measured in the following manner before and after each of the compounds and d-sotalol shown in Table 2 was separately administered to a vein or a duodenum, and ERP (%; extensibility of refractory period) was calculated from the measured values: ERP (%)=(W-Y)/Y×100 W: Refractory period after administration Y: Refractory period before administration To a mongrel adult dog, 30 mg/kg of pentobarbital was administered intravenously, and after being anesthetized, a pair of silver-silver chloride electrodes separated by 3 mm was sewn on an opened right ventricule, and electrical stimulation was given at an interval of 400 msec at a duration time of 4 msec under a current twice as much as the threshold. Afterward, a small amount of alcohol was injected into a sinus artery in order to extinguish a pacemaker activity, and the ventricular refractory period (ERP) was measured under ventricule pacing. That is, each 1 train comprised 10 stimulations having intervals of 400 msec, and an interval between the trains was usually 400 msec. However, this interval was shortened 10 msec by 10 msec at the time of the refractory period measurement, and an interval between the trains at the time when reaction to the first stimulation of the train disappeared was regarded as the refractory period. In this case, the electrical stimulation was fed in accordance with a program by a heart stimulation device (Diamedical Co., Ltd.; DHM-226-3).

## Cn1c(N2CCN(CCCOc3ccc([N+](=O)[O-])cc3)CC2)cc(=O)n(C)c1=O [Compound 35, 1,3-dimethyl-6-{4-[3-(4-nitrophenoxy)propyl]piperazin-1-yl}-2,4(1H,3H)-pyrimidinedione hydrochloride]
[1]
  activation at 1 µg/mL: 17%
  activation at 3 µg/mL: 22%
  activation at 10 µg/mL: 30%
[2]
  change in vivo at 0.1 mg/kg: 6%
  change in vivo at 0.3 mg/kg: 12%
  change in vivo at 1 mg/kg: 15.8%
  change in vivo at 3 mg/kg: 25.3%

## Cn1c(N2CCN(CCCOc3cccc([N+](=O)[O-])c3)CC2)cc(=O)n(C)c1=O [Compound 38, 1,3-dimethyl-6-{4-[3-(3-nitrophenoxy)propyl]piperazin-1-yl}-2,4(1H,3H)-pyrimidinedione hydrochloride]
[1]
  activation at 1 µg/mL: 15%
  activation at 3 µg/mL: 34%
[2]
  change in vivo at 0.1 mg/kg: 0%
  change in vivo at 0.3 mg/kg: 0%
  change in vivo at 1 mg/kg: 7%
  change in vivo at 3 mg/kg: 14%

## CCN(CCNc1cc(=O)n(C)c(=O)n1C)CCc1ccc([N+](=O)[O-])cc1 [Compound 21]
[1]
  activation at 1 µg/mL: 13%
  activation at 3 µg/mL: 27%
  activation at 10 µg/mL: 37%
[2]
  change in vivo at 0.1 mg/kg: 7%
  change in vivo at 0.3 mg/kg: 10%
  change in vivo at 1 mg/kg: 14%
  change in vivo at 3 mg/kg: 14%

## Cn1c(NCCN2CCN(c3ccc([N+](=O)[O-])cc3)CC2)cc(=O)n(C)c1=O [Compound 64, 1,3-dimethyl-6-{2-[4-(4-nitrophenyl)piperazin-1-yl]ethylamino}-2,4(1H,3H)-pyrimidinedione oxalate]
[1]
  activation at 0.3 µg/mL: 8%
  activation at 1 µg/mL: 23%
  activation at 3 µg/mL: 32%
[2]
  change in vivo at 0.1 mg/kg: 21.4%
  change in vivo at 0.3 mg/kg: 28.6%
  change in vivo at 1 mg/kg: 28.6%

## Cn1c(N2CCN(CCCOc3ccc([N+](=O)[O-])cc3O)CC2)cc(=O)n(C)c1=O [Compound 162, 1,3-dimethyl-6-{4-[3-(2-hydroxy-4-nitrophenyloxy)propyl]piperazin-1-yl}-2,4(1H,3H)-pyrimidinedione hydrochloride]
[1]
  activation at 1 µg/mL: 19%
  activation at 3 µg/mL: 41%
  activation at 10 µg/mL: 60%
[2]
  change in vivo at 0.1 mg/kg: 0%
  change in vivo at 0.3 mg/kg: 0%
  change in vivo at 1 mg/kg: 0%
  change in vivo at 3 mg/kg: 0%

## CC(C)NC[C@@H](O)c1ccc(NS(C)(=O)=O)cc1 [d-sotalol, reference compound]
[1]
  activation at 0.3 µg/mL: 0%
  activation at 1 µg/mL: 3%
  activation at 3 µg/mL: 7.4%
  activation at 10 µg/mL: 15.8%
[2]
  change in vivo at 0.1 mg/kg: 1.7%
  change in vivo at 0.3 mg/kg: 6.7%
  change in vivo at 1 mg/kg: 8.7%
  change in vivo at 3 mg/kg: 15.5%

## Cn1c(NCCN(CCCc2ccc([N+](=O)[O-])cc2)CCOC(=O)c2ccccc2)cc(=O)n(C)c1=O [Compound 168, 1,3-dimethyl-6-{2-[N-(2-benzoyloxyethyl)-3-(4-nitrophenyl)propylamino]ethylamino}-2,4(1H,3H)-pyrimidinedione oxalate]
[1]
  activation at 1 µg/mL: 48%
  activation at 3 µg/mL: 55%
  activation at 10 µg/mL: 68%
[2]
  change in vivo at 0.1 mg/kg: 6%
  change in vivo at 0.3 mg/kg: 12%
  change in vivo at 1 mg/kg: 18%
  change in vivo at 3 mg/kg: 18%

## Cn1c(N2CCN(CCCNc3ccc([N+](=O)[O-])cc3C(=O)c3ccccc3)CC2)cc(=O)n(C)c1=O [Compound 111, 1,3-dimethyl-6-{4-[3-(2-benzoyl-4-nitroanilino)propyl]piperazin-1-yl}-2,4(1H,3H)-pyrimidinedione oxalate]
[1]
  activation at 1 µg/mL: 13%
  activation at 3 µg/mL: 21%
[2]
  change in vivo at 0.1 mg/kg: 7.7%
  change in vivo at 0.3 mg/kg: 10.9%
  change in vivo at 1 mg/kg: 14%
  change in vivo at 3 mg/kg: 21%

## CN(CCCN1CCN(c2cc(=O)n(C)c(=O)n2C)CC1)c1ccc([N+](=O)[O-])cc1 [Compound 69, 1,3-dimethyl-6-{4-[3-(N-methyl-4-nitroanilino)propyl]piperazin-1-yl}-2,4(1H,3H)-pyrimidinedione oxalate]
[1]
  activation at 3 µg/mL: 11%
  activation at 10 µg/mL: 13%
[2]
  change in vivo at 0.1 mg/kg: 6.7%
  change in vivo at 0.3 mg/kg: 6.7%
  change in vivo at 1 mg/kg: 13.3%
  change in vivo at 3 mg/kg: 20%

## COC(=O)c1ccc(OCCCN2CCN(c3cc(=O)n(C)c(=O)n3C)CC2)c([N+](=O)[O-])c1 [Compound 154, 1,3-dimethyl-6-{4-[3-(4-methoxycarbonyl-2-nitrophenyloxy)propyl]piperazin-1-yl}-2,4(1H,3H)-pyrimidinedione oxalate]
[1]
  activation at 1 µg/mL: 9%
  activation at 3 µg/mL: 12%
  activation at 10 µg/mL: 20%
[2]
  change in vivo at 0.1 mg/kg: 0%
  change in vivo at 0.3 mg/kg: 0%
  change in vivo at 1 mg/kg: 5.9%
  change in vivo at 3 mg/kg: 11.8%

## Cn1c(N2CCN(CCc3ccc(C(=O)c4ccccc4)cc3[N+](=O)[O-])CC2)cc(=O)n(C)c1=O [Compound 137, 1,3-dimethyl-6-{4-[2-(4-benzoyl-2-nitrophenyl)ethyl]piperazin-1-yl}-2,4(1H,3H)-pyrimidinedione oxalate]
[1]
  activation at 1 µg/mL: 32%
  activation at 3 µg/mL: 51%
[2]
  change in vivo at 0.1 mg/kg: 6.3%
  change in vivo at 0.3 mg/kg: 6.3%
  change in vivo at 1 mg/kg: 12.5%
  change in vivo at 3 mg/kg: 18.8%

## COc1cc([N+](=O)[O-])ccc1OCCCN1CCN(c2cc(=O)n(C)c(=O)n2C)CC1 [Compound 164, 1,3-dimethyl-6-{4-[3-(2-methoxy-4-nitrophenyloxy)propyl]piperazin-1-yl}-2,4(1H,3H)-pyrimidinedione hydrochloride]
[1]
  activation at 3 µg/mL: 8%
  activation at 10 µg/mL: 12%
[2]
  change in vivo at 0.1 mg/kg: 0%
  change in vivo at 0.3 mg/kg: 7.7%
  change in vivo at 1 mg/kg: 15.4%
  change in vivo at 3 mg/kg: 15.4%

## Cn1c(N2CCN(CCCc3ccc(C(=O)c4ccccc4)cc3[N+](=O)[O-])CC2)cc(=O)n(C)c1=O [Compound 136, 1,3-dimethyl-6-{4-[3-(4-benzoyl-2-nitrophenyl)propyl]piperazin-1-yl}-2,4(1H,3H)-pyrimidinedione hydrochloride]
[1]
  activation at 1 µg/mL: 11%
  activation at 3 µg/mL: 14%
[2]
  change in vivo at 0.3 mg/kg: 7.7%
  change in vivo at 1 mg/kg: 15.4%
  change in vivo at 3 mg/kg: 15.4%

## CC(=O)c1cc([N+](=O)[O-])ccc1OCCCN1CCN(c2cc(=O)n(C)c(=O)n2C)CC1 [Compound 76, 1,3-dimethyl-6-{4-[3-(2-acetyl-4-nitrophenoxy)propyl]piperazin-1-yl}-2,4(1H,3H)-pyrimidinedione oxalate]
[1]
  activation at 1 µg/mL: 16%
  activation at 3 µg/mL: 21%
[2]
  change in vivo at 0.1 mg/kg: 2.4%
  change in vivo at 0.3 mg/kg: 4.3%
  change in vivo at 1 mg/kg: 12.6%
  change in vivo at 3 mg/kg: 16.5%

## Cn1c(N2CCN(CC(=O)c3ccc([N+](=O)[O-])cc3)CC2)cc(=O)n(C)c1=O [Compound 42, 1,3-dimethyl-6-[4-(4-nitrophenacyl)piperazin-1-yl]-2,4(1H,3H)-pyrimidinedione hydrochloride]
[1]
  activation at 1 µg/mL: 2%
  activation at 3 µg/mL: 10%
  activation at 10 µg/mL: 17%
[2]
  change in vivo at 0.1 mg/kg: 4.6%
  change in vivo at 0.3 mg/kg: 9.4%
  change in vivo at 1 mg/kg: 11.7%
  change in vivo at 3 mg/kg: 18.4%

## Cn1c(N2CCN(CCCOc3ccc([N+](=O)[O-])c(C(F)(F)F)c3)CC2)cc(=O)n(C)c1=O [Compound 150, 1,3-dimethyl-6-{4-[3-(3-trifluoromethyl-4-nitrophenyloxy)propyl]piperazin-1-yl}-2,4(1H,3H)-pyrimidinedione oxalate]
[1]
  activation at 3 µg/mL: 16%
[2]
  change in vivo at 0.1 mg/kg: 0%
  change in vivo at 0.3 mg/kg: 0%
  change in vivo at 1 mg/kg: 6.3%
  change in vivo at 3 mg/kg: 6.3%

## Cn1c(N2CCN(CCOc3ccc([N+](=O)[O-])cc3)CC2)cc(=O)n(C)c1=O [Compound 53, 1,3-dimethyl-6-{4-[2-(4-nitrophenoxy)ethyl]piperazin-1-yl}-2,4(1H,3H)-pyrimidinedione hydrochloride]
[1]
  activation at 1 µg/mL: 8%
  activation at 3 µg/mL: 22%
  activation at 10 µg/mL: 43%
[2]
  change in vivo at 0.1 mg/kg: 8.8%
  change in vivo at 0.3 mg/kg: 23%
  change in vivo at 1 mg/kg: 30.1%
